Common to all, as to assay: Anti-proliferation assay (ATPLite), Chalice synergy score
Assay type in all cases: cell-based

Test [1] concerns BT-20. The arrangement: scale not given here. Particulars: Compound 1 in combination with the named second active agent, 72 h, mean of n = 3 experiments in triplicate. The source says: (§1) Cells were thawed from a liquid nitrogen preserved state.
(§2) The calculation for synergy score is provided below.
(§3) If T≧V0:100*[1−(T−V0)/(V−V0)]

The subject of test [2] is HCC-1187. The arrangement: scale not given here. Particulars: Compound 1 in combination with the named second active agent, 72 h, mean of n = 3 experiments in triplicate.
Text: as §1, §2, §3

The test system of test [3] is HCC-1500. The arrangement: scale not given here. The note with it: Compound 1 in combination with the named second active agent, 72 h, mean of n = 3 experiments in triplicate.
Text: as §1, §2, §3

Test [4] concerns HCC-1806. The note with it: Compound 1 in combination with the named second active agent, 72 h, mean of n = 3 experiments in triplicate.
Text: as §1, §2, §3

In test [5] the test system is MDA-MB-436. The note with it: Compound 1 in combination with second active agent, mean self-cross + 2σ threshold 1.91.
Text: as §1, §2, §3

Test [6] relates to MDA-MB-157. The note with it: Compound 1 in combination with second active agent, mean self-cross + 2σ threshold 4.68.
Text: as §1, §2, §3

Test [7] concerns HCC-1428. The note with it: Compound 1 in combination with the named second active agent, 72 h, mean of n = 3 experiments in triplicate.
Text: as §1, §2, §3

The subject of test [8] is BT-549. Particulars: Compound 1 in combination with the named second active agent, 72 h, mean of n = 3 experiments in triplicate.
Text: as §1, §2, §3

Test [9] has as its system Hs-578-T. The note with it: Compound 1 in combination with second active agent, mean self-cross + 2σ threshold 4.09.
Text: as §1, §2, §3

Test [10] concerns HCC-1937. Particulars: Compound 1 in combination with the named second active agent, 72 h, mean of n = 3 experiments in triplicate.
Text: as §1, §2, §3

Test [11] relates to BT-474. The note with it: Compound 1 in combination with the named second active agent, 72 h, mean of n = 3 experiments in triplicate.
Text: as §1, §2, §3

Test [12] has as its system MDA-MB-468. The note with it: Compound 1 in combination with second active agent, mean self-cross + 2σ threshold 4.66.
Text: as §1, §2, §3

For test [13], the system named is MDA-MB-231. The note with it: Compound 1 in combination with second active agent, mean self-cross + 2σ threshold 2.61.
Text: as §1, §2, §3

In test [14] the test system is MCF7. Particulars: Compound 1 in combination with second active agent, mean self-cross + 2σ threshold 3.07.
Text: as §1, §2, §3

Test [15] concerns HCC70. Particulars: Compound 1 in combination with second active agent; HCC-70; mean self-cross + 2σ threshold 3.45.
Text: as §1, §2, §3

Experimental findings from patent US9737535B2, “Methods for treating cancer using TOR kinase inhibitor combination therapy comprising administering substituted pyrazino[2,3-b]pyrazines” (Signal Pharmaceuticals, LLC, priority 2014, dated 2017) are described below.

With `OCCn1cc(-c2ccc3c(c2)CC/C3=N\O)c(-c2ccncc2)n1` [GDC-0879], the Synergy score in test [1] is 0.00; in test [2], 0.85; in test [3] it was 0.91; in test [4] it was 0.47; in test [5] it was 0.13; in test [6] it was 0.69. For the same compound, the Synergy score in test [7] was determined as 0.13; in [8], 0.08; in [9], 0.75; in test [10] it was 0.29; in test [11] it was 0.46; in test [12], 0.44. Also, the Synergy score was found to be 0.54 in [13], 0.11 in test [14] and 0.43 in test [15].
With `COc1c(C)cnc(Cn2cnc3c(Cl)nc(N)nc32)c1C` [BIIB021], the Synergy score in test [1] is 3.71; in test [2], 0.45; in test [3] it was 1.11; in [4], 1.01; in [5], 0.33; in test [6] it was 3.94. For the same compound, the Synergy score in test [7] was 4.02; in test [8], 0.12; in test [9] it was 1.19; in test [10], 1.44; in test [11], 2.83; in [12], 5.46. Further, the Synergy score is on record as 1.22 in [13], 0.15 in test [14] and 9.58 in test [15].
Regarding `C[C@@]1(C(=O)Nc2ccc(F)nc2)CCCN1c1nc(Nc2cc(C3CC3)n[nH]2)c2cccn2n1` [BMS-754807], the Synergy score in test [1] is given as 2.08; in [2], 9.68; in [3], 3.99; in test [4], 3.04; in test [5], 2.00; in [6] it was 9.46. Further, the Synergy score in test [7] came to 4.09; in [8], 2.14; in test [9], 3.32; in [10] it was 0.64; in test [11] it was 1.30; in test [12] it was 2.25. Besides, the Synergy score is on record as 2.50 in test [13], 5.31 in [14] and 2.08 in test [15].
As to `CCc1cc(Nc2nccc(-c3c(-c4ccc(OC)c(C(=O)Nc5c(F)cccc5F)c4)nc4ccccn34)n2)c(OC)cc1N1CCC(N2CCN(S(C)(=O)=O)CC2)CC1` [GSK1904529A], the Synergy score was determined as 1.07 in test [1]; 1.68 in test [2]; 1.63 in [3]; 1.00 in test [4]; 1.22 in [5]; 0.82 in [6]. In addition, the Synergy score in [7] worked out at 0.16; in test [8], 0.81; in [9], 0.97; in test [10], 1.86; in test [11] it was 1.09; in test [12], 2.44. Besides, the Synergy score in [13] was found to be 0.09; in [14] it was 2.77; in test [15], 2.15.
For the compound `COc1ccc(Cl)c(Nc2nc3ccccc3nc2NS(=O)(=O)c2cccc(NC(=O)C(C)(C)N)c2)c1` [XL147], the Synergy score in test [1] worked out at 0.23; in [2] it was 5.02; in test [3], 2.87; in [4], 1.06; in test [5], 0.67; in test [6], 1.99. Further, the Synergy score came out at 0.43 in test [7]; 0.18 in test [8]; 0.77 in [9]; 0.64 in test [10]; 1.81 in test [11]; 0.34 in [12]. Further, the Synergy score in [13] is reported as 0.57; in test [14], 0.18; in test [15], 0.09.
In the case of `CC[C@@]1(O)C(=O)OCc2c1cc1n(c2=O)Cc2cc3cc(O)ccc3nc2-1` [10-Hydroxycamptothecin], the Synergy score in test [1] is listed as 6.15; in test [2], 6.49; in test [3], 4.43; in test [4] it was 3.88; in test [5] it was 3.62; in test [6] it was 10.30. The Synergy score in test [7] worked out at 4.13; in test [8] it was 4.11; in [9], 1.70; in test [10] it was 12.40; in [11], 1.20; in [12], 7.86. For the same compound, the Synergy score in test [13] was found to be 8.55; in [14], 3.80; in [15], 6.31.
Regarding `C=CCn1c(=O)c2cnc(Nc3ccc(N4CCN(C)CC4)cc3)nc2n1-c1cccc(C(C)(C)O)n1` [MK1775], the Synergy score in test [1] is 5.01; in [2] it was 1.30; in test [3] it was 2.46; in test [4], 0.55; in test [5] it was 1.45; in [6], 2.68. Moreover, the Synergy score in [7] is reported as 3.25; in test [8], 2.99; in test [9], 9.02; in [10], 7.93; in [11], 9.61; in test [12], 7.69. Besides, the values for the Synergy score in test [13], in [14] and in test [15] were 2.31, 5.76 and 12.10, respectively.
As to `OCCn1cc(-c2cnc3nnn(Cc4ccc5ncccc5c4)c3n2)cn1` [PF-04217903], the Synergy score is on record as 0.05 in test [1]; 0.17 in test [2]; 0.11 in [3]; 0.39 in test [4]; 0.08 in test [5]; 0.75 in test [6]. Besides, the Synergy score in test [7] is listed as 0.31; in test [8], 0.04; in [9] it was 1.12; in test [10], 0.44; in [11], 0.57; in test [12], 1.09. Also, the Synergy score in test [13] is recorded as 0.53; in [14], 0.20; in [15], 0.33.
As to `CN(C)CC[C@H](CSc1ccccc1)Nc1ccc(S(=O)(=O)NC(=O)c2ccc(N3CCN(Cc4ccccc4-c4ccc(Cl)cc4)CC3)cc2)cc1[N+](=O)[O-]` [ABT-737], the Synergy score in test [1] is reported as 7.28; in test [2] it was 8.77; in test [3], 4.23; in test [4], 6.15; in test [5], 0.56; in test [6] it was 4.46. Besides, the Synergy score was 10.60 in [7]; 6.10 in [8]; 10.00 in [9]; 5.46 in test [10]; 4.14 in test [11]; 8.29 in [12]. The Synergy score in test [13] came to 10.00; in [14] it was 6.97; in test [15] it was 9.10.
As to `COCCn1c2c([n+](Cc3cnccn3)c1C)C(=O)c1ccccc1C2=O` [YM155], the Synergy score was found to be 2.67 in test [1]; 4.94 in test [2]; 2.81 in test [3]; 5.52 in test [4]; 2.79 in test [5]; 5.42 in test [6]. The Synergy score stood at 1.16 in test [7]; 6.80 in test [8]; 3.36 in [9]; 5.70 in [10]; 4.04 in [11]; 0.24 in test [12]. Moreover, the results for the Synergy score in test [13], in [14] and in [15] were 2.54, 1.77 and 4.01, respectively.
Regarding `COc1ccc(-c2cc3nccn3c(Nc3ncccc3C(N)=O)n2)cc1OC.Cl` [BAY61-3606 Hydrochloride], the Synergy score in [1] is reported as 0.20; in test [2] it was 3.17; in [3], 0.02; in [4], 0.48; in test [5], 0.94; in test [6], 1.49. The Synergy score in test [7] is on record as 1.21; in test [8], 2.31; in test [9] it was 5.49; in test [10], 0.18; in [11], 0.04; in test [12], 5.47. Also, the figures for the Synergy score in test [13], in test [14] and in [15] were 0.79, 1.49 and 3.93, respectively.
